Tests used:
MCF-7 cell line = experiment: MTT cytotoxic / antiproliferative activity against MCF-7 cell line; assay type: cell-based; conditions: for IC50: MTT assay, MCF-7 breast adenocarcinoma cells, 24 h treatment; for fold more potent antiproliferative activity than the reference STU: MCF-7, relative to STU IC50
Description: S4.2.1. Cytotoxic activity evaluation […]
adenocarcinoma (MCF-7) cell line. Cell viability assay was assessed using MTT assay […]
under 5% CO2. After incubation, the cells were treated with different concentrations of the test hybrid 5 and 6a-h and incubated for 24 h, then 20 µl of MTT solution at 5 […]
Dimethyl sulphoxide (DMSO) in […]
volume of 100 µl was added to each well to dissolve the purple formazan that had formed. The color intensity of the formazan product, which represents the growth […]
570 nm absorbance. The experimental conditions were carried out with at least three replicates, and the experiments were repeated at least three times. […]

MCF-7 cells [1] = experiment: Mitochondrial membrane potential (MMP) by flow cytometry in MCF-7 cells; assay type: cell-based
Text: A major part of apoptosis process is played by mitochondria.[46] Several active proteins such as cytochrome C and factor that induces apoptosis are two of the active proteins found in mitochondria.[47] The release of such proteins after inhibition of mitochondrial membrane potential (MMP) is crucial in the propagation of apoptosis.[48] […] This decrease in MMP was linked to an increase in Annexin V positive cells. […] According to this, quinoline tethered [2-(4-methoxyphenyl)-cis-vinyl] triamide 6f cause MCF-7 cells to become dysfunction in their mitochondria, which in turn trigger apoptotic cellular death. These outcomes were consistent with early findings that EGFR-TK inhibitors promote apoptosis via the mitochondrial route.

MCF-7 cells [2] = experiment: Annexin V-FITC/PI apoptosis assay by flow cytometry in MCF-7 cells; assay type: cell-based; conditions: 48 h
Description: Apoptosis play an important role in organogenesis and in crafting complex tissues during embryonic growth, and in the preservation of tissue homeostasis in adult organism.[44] Numerous clinical disorders, including cancer, autoimmune illness and infectious diseases, are characterised by the deregulation of apoptosis.[45] To ensure the ability of quinoline tethered [2-(4-methoxyphenyl)-cis-vinyl] triamide 6f to activate apoptosis, flow cytometric measurement was carried out using Annexin V which binds to phophatidylserine declared on the outer layed of apoptotic cells and appears fluorescent green and PI which stains DNA and penetrates only dead cells. […] Meanwhile, the proportion of late apoptotic cells rose from 0.21% to 16.65% compared to DMOS controls (Fig. 4). […]
S4.2.3. Apoptosis assay for compound 6f
Apoptosis in MCF-7 cells was investigated using fluorescent Annexin V-FITC/ PI detection kit (BioVision Annexin V-FITC Apoptosis Detection Kit, Catalog #: K101) by flow cytometry assay. MCF-7 cells at a density of 2 × 10^5 per well were treated with compound 6f at the IC50 (µM) for 48 h, then the cells were harvested and stained with Annexin V-FITC/ PI dye for 15 min in the dark at 37 °C. The samples were immediately analyzed using FACS Calibur flow cytometer (Becton and Dickinson, […]
S4.2.4. EGFR kinase Assay […]
according to manufacturer’s instructions using # BPS Bioscience EGFR Kinase Assay

MCF-7 cells [3] = experiment: Cell cycle analysis by flow cytometry (PI staining) in MCF-7 cells; assay type: cell-based; conditions: MCF-7, 1.87 μM, 48 h
Text: The cell cycle is related to a series of events responsible for cell division and duplication.[42] The cell cycle presents three distinct phases: G1, S and G2/M phase.[43] Due to the importance of the cell cycle in the process of tumor progression, we evaluated if the cell growth inhibition in MCF-7 occurred due to cell cycle arrest using FACS method. In the present study, flow cytometric measurement was utilized to investigate the effect of quinoline tethered [2-(4-methoxyphenyl)-cis-vinyl] triamide 6f on cellular cycle progression in tested breast cancer cells. In the test, MCF-7 cells were treated with quinoline tethered [2-(4-methoxyphenyl)-cis-vinyl] triamide 6f at a concentration of 1.87 μM, then incubated for 48 h. The cellular cycle distribution was analyzed to identify the definite phase at which quinoline tethered [2-(4-methoxyphenyl)-cis-vinyl] triamide 6f can arrest the cell cycle. […] It is observed that the percentage of cells at G1 phase was increased by 1.2-fold compared to controls (Fig. 3).
S4.2.1. Cytotoxic activity evaluation
To measure the cytotoxic actvity of the prepared derivatives 5 and 6a-h in breast adenocarcinoma (MCF-7) cell line. Cell viability assay was assessed using MTT assay method. Cells at density of 1 x 104 were seeded in a 96-well plate at 37 °C for 24 h under 5% CO2. After incubation, the cells were treated with different concentrations of the test hybrid 5 and 6a-h and incubated for 24 h, then 20 µl of MTT solution at 5 mg/mL was applied and incubated for 4 h at 37 °C. […] The color intensity of the formazan product, which represents the growth condition of the cells, is quantified by using an ELISA plate reader (EXL 800, USA) at 570 nm absorbance. […]
Cell cycle analysis in MCF-7 cells was investigated using fluorescent […] (BioVision EZCellTM Cell Cycle Analysis Kit Catalog #K920) by flow cytometry assay. […] The samples were immediately analyzed using Facs Calibur flow cytometer (Becton and Dickinson, Heidelberg, […]

EGFR tyrosine kinase = molecular target: T1, EGFR tyrosine kinase (Homo sapiens, UniProt P00533); experiment: EGFR kinase assay (BPS Bioscience EGFR Kinase Assay Kit); assay type: biochemical; conditions: read-out: EGFR inhibitory activity IC50
T1 construct: purchased BPS Bioscience 40321
Text: immediately analyzed using FACS Calibur flow cytometer (Becton and Dickinson,
S4.2.4. EGFR kinase Assay
(1 picture or pasted object on this page, not shown here)

T1 sequence (P00533 25-1210): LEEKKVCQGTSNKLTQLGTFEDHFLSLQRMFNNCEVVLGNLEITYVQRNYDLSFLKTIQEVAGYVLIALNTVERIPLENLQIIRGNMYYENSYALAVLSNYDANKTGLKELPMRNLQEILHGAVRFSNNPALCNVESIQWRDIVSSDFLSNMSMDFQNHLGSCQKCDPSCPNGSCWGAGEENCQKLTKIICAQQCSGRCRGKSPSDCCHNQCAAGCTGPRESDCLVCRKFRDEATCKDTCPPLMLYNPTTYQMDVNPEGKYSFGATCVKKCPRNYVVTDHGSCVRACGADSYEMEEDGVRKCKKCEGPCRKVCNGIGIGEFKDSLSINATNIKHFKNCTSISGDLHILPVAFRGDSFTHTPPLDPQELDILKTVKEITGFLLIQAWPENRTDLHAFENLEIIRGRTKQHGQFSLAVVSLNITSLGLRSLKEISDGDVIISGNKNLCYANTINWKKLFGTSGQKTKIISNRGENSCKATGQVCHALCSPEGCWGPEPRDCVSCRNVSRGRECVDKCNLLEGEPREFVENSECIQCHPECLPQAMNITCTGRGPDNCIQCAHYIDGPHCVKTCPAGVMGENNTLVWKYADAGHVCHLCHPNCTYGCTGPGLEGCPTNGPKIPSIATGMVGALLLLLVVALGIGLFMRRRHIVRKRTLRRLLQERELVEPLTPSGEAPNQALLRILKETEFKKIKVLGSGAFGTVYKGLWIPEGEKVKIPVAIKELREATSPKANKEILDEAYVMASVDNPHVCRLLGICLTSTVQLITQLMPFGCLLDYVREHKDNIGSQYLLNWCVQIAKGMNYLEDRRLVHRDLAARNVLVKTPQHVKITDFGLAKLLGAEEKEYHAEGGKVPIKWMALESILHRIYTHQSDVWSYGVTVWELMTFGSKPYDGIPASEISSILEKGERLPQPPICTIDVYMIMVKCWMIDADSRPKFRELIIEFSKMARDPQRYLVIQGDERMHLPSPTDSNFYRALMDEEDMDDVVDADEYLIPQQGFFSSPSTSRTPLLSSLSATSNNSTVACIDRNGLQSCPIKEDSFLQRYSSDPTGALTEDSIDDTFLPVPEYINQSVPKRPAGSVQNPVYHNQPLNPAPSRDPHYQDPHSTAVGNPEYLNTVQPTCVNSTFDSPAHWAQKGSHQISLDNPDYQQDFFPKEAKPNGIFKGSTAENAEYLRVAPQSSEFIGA

melting point [°C] | Structure (SMILES) | IC50 (MCF-7 cell line; Homo sapiens, MCF7, 24 h) [µM] | fold more potent antiproliferative activity than the reference STU (MCF-7 cell line) | further results
177 to 179 | O=C(NNC(=O)c1cc(-c2ccc(Br)cc2)nc2ccccc12)/C(=C/c1ccc(F)cc1)NC(=O)c1ccccc1 [Compound 6a, (Z)-N-(3-(2-(2-(4-Bromophenyl)quinoline-4-carbonyl)hydrazinyl)-1-(4-fluorophenyl)-3-oxoprop-1-en-2-yl)benzamide] | 59.8 ± 1.93 |  | 
185 to 187 | O=C(NNC(=O)c1cc(-c2ccc(Br)cc2)nc2ccccc12)/C(=C/c1ccc(Cl)cc1)NC(=O)c1ccccc1 [Compound 6b, (Z)-N-(3-(2-(2-(4-Bromophenyl)quinoline-4-carbonyl)hydrazinyl)-1-(4-chlorophenyl)-3-oxoprop-1-en-2-yl)benzamide] | 8.29 ± 0.27 | 1.06–7.10 fold | 
211 to 213 | Cc1ccc(/C=C(\NC(=O)c2ccccc2)C(=O)NNC(=O)c2cc(-c3ccc(Br)cc3)nc3ccccc23)cc1 [Compound 6e, (Z)-N-(3-(2-(2-(4-Bromophenyl)quinoline-4-carbonyl)hydrazinyl)-3-oxo-1-p-tolylprop-1-en-2-yl)benzamide] | 1.87 | 1.06–7.10 fold | IC50 (MCF-7 cell line): 3.03 ± 0.1 µM
207 to 209 | O=C(NNC(=O)c1cc(-c2ccc(Br)cc2)nc2ccccc12)/C(=C/c1ccc([N+](=O)[O-])cc1)NC(=O)c1ccccc1 [Compound 6d, (Z)-N-(3-(2-(2-(4-Bromophenyl)quinoline-4-carbonyl)hydrazinyl)-1-(4-nitrophenyl)-3-oxoprop-1-en-2-yl)benzamide] | 12.4 ± 0.4 | 1.06–7.10 fold | 
188 to 190 | O=C(NNC(=O)c1cc(-c2ccc(Br)cc2)nc2ccccc12)/C(=C/c1ccco1)NC(=O)c1ccccc1 [Compound 5, (Z)-N-(3-(2-(2-(4-Bromophenyl)quinoline-4-carbonyl)hydrazinyl)-1-(furan-2-yl)-3-oxoprop-1-en-2-yl)benzamide] | 6.6 ± 0.21 | 1.06–7.10 fold | 
191 to 193 | O=C(NNC(=O)c1cc(-c2ccc(Br)cc2)nc2ccccc12)/C(=C/c1ccc(Br)cc1)NC(=O)c1ccccc1 [Compound 6c, (Z)-N-(1-(4-Bromophenyl)-3-(2-(2-(4-bromophenyl)quinoline-4-carbonyl)hydrazinyl)-3-oxoprop-1-en-2-yl)benzamide] | 19.2 ± 0.62 |  | 
169 to 171 | COc1cc(/C=C(\NC(=O)c2ccccc2)C(=O)NNC(=O)c2cc(-c3ccc(Br)cc3)nc3ccccc23)cc(OC)c1OC [Compound 6h, (Z)-N-(3-(2-(2-(4-Bromophenyl)quinoline-4-carbonyl)hydrazinyl)-3-oxo-1-(3,4,5-trimethoxyphenyl)prop-1-en-2-yl)benzamide] | 15.6 ± 0.42 |  | 
 | COc1ccc(/C=C(\NC(=O)c2ccccc2)C(=O)NNC(=O)c2cc(-c3ccc(Br)cc3)nc3ccccc23)cc1 [Compound 6f, (Z)-N-(3-(2-(2-(4-Bromophenyl)quinoline-4-carbonyl)hydrazinyl)-1-(4-methoxyphenyl)-3-oxoprop-1-en-2-yl)benzamide] | 1.88 | 1.06–7.10 fold | decrease of MMP of MCF-7 cells compared to controls (percentage change value) (MCF-7 cells [1]; MCF-7, 1.87 μM (IC50 dose), vs DMSO controls): 57.93%; MMPΨ / MCF-7 (flow cytometry reading) (MCF-7 cells [1]; MCF-7, 1.87 μM, control 58497): 24610; percentage of primary (early) apoptotic cells (MCF-7 cells [2]; MCF-7, 1.87 μM (IC50), lower right quadrant, DMSO control 0.66%): 9.52%; proportion of late apoptotic cells (MCF-7 cells [2]; MCF-7, 1.87 μM (IC50), upper right quadrant, DMSO control 0.21%): 16.65%; fold increase of early apoptosis compared to controls (MCF-7 cells [2]; MCF-7, 1.87 μM): ~14.4 fold; fold increase of late apoptosis compared to controls (MCF-7 cells [2]; MCF-7, 1.87 μM): ~79.3 fold; IC50 (MCF-7 cell line): 1.87 ± 0.06 µM; fold increase of percentage of cells at G1 phase compared to controls (MCF-7 cells [3]): 1.2 fold; percentage of cells at G2/M phase (%DIP G2/M) (MCF-7 cells [3]; control 14.04%): 7.12%; percentage of cells at S phase (%DIP S) (MCF-7 cells [3]; control 34.30%): 29.32%; IC50 (EGFR tyrosine kinase): 0.19 µM
181 to 183 | CC(=O)Oc1c(Br)cc(/C=C(\NC(=O)c2ccccc2)C(=O)NNC(=O)c2cc(-c3ccc(Br)cc3)nc3ccccc23)cc1Br [Compound 6g, (Z)-4-(2-Benzamido-3-(2-(2-(4-bromophenyl)quinoline-4-carbonyl)hydrazinyl)-3-oxoprop-1-enyl)-2,6-dibromophenyl acetate] | 30.4 ± 0.98 |  | 

Reference: article PMC11305403, “Design, synthesis, and antiproliferative screening of new quinoline derivatives bearing a cis-vinyl triamide motif as apoptosis activators and EGFR-TK inhibitors” (RSC Advances, 2024)
